One molecule from ChEMBL document CHEMBL3045481, “Insecticide-induced resurgence of the whitebacked planthopper Sogatella furcifera (Horvath) (Hemiptera: Delphacidae) on rice varieties with different levels of resistance” (Crop Prot, 2011) can be followed below.

In assay [1] the test system is Sogatella furcifera. In words: Insecticidal activity against Sogatella furcifera on insect-sensitive rice plant ARC6248 assessed as growth index at 0.0018% concentration (reference value: 2.38%). In kind it is functional.
In assay [2] the test system is Sogatella furcifera. In words: Insecticidal activity against Sogatella furcifera on insect-resistanct rice plant PR116 assessed as growth index at 0.0018% concentration (reference value: 6.02%). The assay is classed as functional.
Assay [3] relates to Sogatella furcifera. In words: Insecticidal activity against Sogatella furcifera on insect-resistanct rice plant PR116 assessed as reproduction at 0.0018% concentration. The assay is classed as functional, organism-based.
In assay [4] the test system is Sogatella furcifera. In words: Insecticidal activity against adult Sogatella furcifera on insect-sensitive rice plant ARC6248 assessed as high mortality at 0.0035% concentration. The assay is classed as functional, organism-based.
For assay [5], the system named is Sogatella furcifera. In words: Insecticidal activity against adult Sogatella furcifera on insect-resistanct rice plant PR116 assessed as high mortality at 0.0035% concentration. The assay is classed as functional, organism-based.
Assay [6] has as its system Sogatella furcifera. In words: Insecticidal activity against Sogatella furcifera on insect-sensitive rice plant ARC6248 assessed as resurgence ratio at 0.100% concentration. The assay is classed as functional.
Assay [7] deals with Sogatella furcifera. As to the kind of experiment: Insecticidal activity against Sogatella furcifera on insect-resistanct rice plant PR116 assessed as resurgence ratio at 0.100% concentration. In kind it is functional.
Assay [8] relates to Sogatella furcifera. As to the kind of experiment: Insecticidal activity against Sogatella furcifera on insect-sensitive rice plant ARC6248 assessed as reproduction at 0.0018% concentration. The assay is classed as functional, organism-based.
The test system of assay [9] is Sogatella furcifera. As to the kind of experiment: Insecticidal activity against Sogatella furcifera on insect-sensitive rice plant ARC6248 assessed as nymphal survival at 0.0018% concentration (reference value: 34.17%). The assay is classed as functional.
Assay [10] concerns Sogatella furcifera. As to the kind of experiment: Insecticidal activity against Sogatella furcifera on insect-resistanct rice plant PR116 assessed as nymphal survival at 0.0018% concentration (reference value: 70.28%). The assay is classed as functional.
Assay [11] deals with Sogatella furcifera. In words: Insecticidal activity against Sogatella furcifera on insect-sensitive rice plant ARC6248 assessed as nymphal duration at 0.0018% concentration (reference value: 14.48 days). In kind it is functional.
Assay [12] has as its system Sogatella furcifera. In words: Insecticidal activity against Sogatella furcifera on insect-resistanct rice plant PR116 assessed as nymphal duration at 0.0018% concentration (reference value: 11.75 days). The assay is classed as functional.

The structures appear in SMILES notation. Calls of active or inactive are those of the source. The calls are words filed in the database; no cut-off is given here.

As for `O=[N+]([O-])/N=C1\NCCN1Cc1ccc(Cl)nc1` [IMIDACLOPRID], the “growth inhibition (GI)” value with Sogatella furcifera [1] came to 2.48%; in the assay with Sogatella furcifera [2], 5.91%. Moreover, the inhibition result with Sogatella furcifera [3] and in the assay on Sogatella furcifera [8] was “inactive” in each case. Further, the inhibition result with Sogatella furcifera [4] and in the assay on Sogatella furcifera [5] was “Active” in each case. Moreover, the Ratio with Sogatella furcifera [6] and in the assay on Sogatella furcifera [7] was less than 1 in each case. Also, the values for the Survival with Sogatella furcifera [9] and in the assay on Sogatella furcifera [10] were 35.56% and 69.72%, respectively. The Time was determined as 14.46 days with Sogatella furcifera [11] and 11.85 days with Sogatella furcifera [12].
